Literature values, collected in patent US20240000829A1, “COPOLYMER CONTAINING POLY(ETHYLENE GLYCOL) AND POLY(L-AMINO ACID DERIVATIVE), MICROPARTICLES THEREOF AND USE THEREOF IN PHARMACEUTICAL COMPOSITION” (University of Tsukuba, priority 2020, published 2024).

Tested on: patients with hepatic disorders such as hepatic cirrhosis
Details: reported; Non-Patent Document 1

Question: Which “ammonia level / concentration” value does the source give for `NCCC[C@H](N)C(=O)O` [L-ornithine] here?
Answer: reduced ammonia levels
